The experiment deals with T1, NaChBac (Halalkalibacterium halodurans, UniProt Q9KCR8).
T1 construct: gene BH1501
T1 sequence (Q9KCR8 1-274): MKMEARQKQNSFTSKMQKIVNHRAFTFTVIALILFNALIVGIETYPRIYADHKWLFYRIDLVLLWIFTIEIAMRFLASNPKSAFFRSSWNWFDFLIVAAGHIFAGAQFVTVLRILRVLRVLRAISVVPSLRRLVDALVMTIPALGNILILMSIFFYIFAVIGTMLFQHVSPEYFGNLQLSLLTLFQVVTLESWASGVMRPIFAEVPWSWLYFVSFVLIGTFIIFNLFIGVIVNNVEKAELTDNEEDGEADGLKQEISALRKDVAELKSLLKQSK
Briefly: planar lipid bilayer current recording, reconstituted purified channel. Conditions: block from the intracellular side, reversible on washout; concentration not printed for this test; step from -120 to +60 mV; POPE/POPG bilayer; pH 7.4. The format is biochemical.

The structures appear in SMILES notation.

`CC[N+](CC)(CC)CC(=O)Nc1c(C)cccc1C` [lidocaine N-ethyl bromide]: the “planar lipid bilayer current recording, reconstituted purified channel” value is listed as “It was observed that the current completely dimished (red trace of Fig 3C)”.

The record behind these values is paper PMC5708646, “Single-molecule study of full-length NaChBac by planar lipid bilayer recording” (PLoS ONE, 2017).
